In PMC9475448, “What a difference a methylene makes: replacing Glu with Asp or Aad in the Lys-urea-Glu pharmacophore of PSMA-targeting radioligands to reduce kidney and salivary gland uptake” (Theranostics, 2022):

System: LNCaP tumor-bearing mice
Assay: Ex vivo biodistribution of 177Lu-labeled ligands in LNCaP tumor-bearing NRG mice
[1] = 1 h post-injection, listed as [177Lu]Lu-PSMA-617
[2] = 4 h post-injection, listed as [177Lu]Lu-PSMA-617

[^177Lu]Lu-PSMA-617
Adrenal glands uptake (1 h post-injection): 3.025 ± 0.939 %IA/g | Blood uptake (1 h post-injection): 0.750 ± 0.119 %IA/g | Blood:Salivary gland uptake ratio (1 h post-injection): < 1.0 | Bone uptake (1 h post-injection): 0.118 ± 0.026 %IA/g | Brain uptake (1 h post-injection): 0.028 ± 0.007 %IA/g | Fat uptake (1 h post-injection): 0.327 ± 0.069 %IA/g | Heart uptake (1 h post-injection): 0.294 ± 0.045 %IA/g | Intestines uptake (1 h post-injection): 0.275 ± 0.032 %IA/g | Kidneys uptake (1 h post-injection): 79.7±11.7 %IA/g | Lacrimal glands uptake (1 h post-injection): 0.068 ± 0.022 %IA/g | Liver uptake (1 h post-injection): 0.224 ± 0.030 %IA/g | Lungs uptake (1 h post-injection): 1.377 ± 0.152 %IA/g | Muscle uptake (1 h post-injection): 0.177 ± 0.032 %IA/g | Pancreas uptake (1 h post-injection): 0.387 ± 0.074 %IA/g | Salivary glands uptake (1 h post-injection): 1.78±0.38 %IA/g | Spleen uptake (1 h post-injection): 3.666 ± 1.342 %IA/g | Stomach uptake (1 h post-injection): 0.130 ± 0.054 %IA/g | Testes uptake (1 h post-injection): 0.433 ± 0.068 %IA/g | Thyroid uptake (1 h post-injection): 0.556 ± 0.073 %IA/g | Tumor uptake (1 h post-injection): 16.5±2.46 %IA/g | Tumor:Blood uptake ratio (1 h post-injection): 22.5 ± 4.07 | Tumor:Kidney uptake ratio (1 h post-injection): 0.21 ± 0.04 | Tumor:Muscle uptake ratio (1 h post-injection): 94.3 ± 12.8 | Tumor:Salivary gland uptake ratio (1 h post-injection): 9.81 ± 3.33 | Blood:Salivary gland uptake ratio [1]: 0.44 ± 0.12 | Kidneys uptake [1]: 79.67 ± 11.68 %IA/g | Salivary glands uptake [1]: 1.775 ± 0.381 %IA/g | Tumor uptake [1]: 16.48 ± 2.456 %IA/g | Adrenal glands uptake (4 h post-injection): 0.469 ± 0.527 %IA/g | Blood uptake (4 h post-injection): 0.031 ± 0.017 %IA/g | Blood:Salivary gland uptake ratio (4 h post-injection): 0.20 ± 0.06 | Bone uptake (4 h post-injection): 0.017 ± 0.007 %IA/g | Brain uptake (4 h post-injection): 0.011 ± 0.001 %IA/g | Fat uptake (4 h post-injection): 0.028 ± 0.011 %IA/g | Heart uptake (4 h post-injection): 0.026 ± 0.006 %IA/g | Intestines uptake (4 h post-injection): 0.135 ± 0.042 %IA/g | Kidneys uptake (4 h post-injection): 13.1±9.60 %IA/g | Lacrimal glands uptake (4 h post-injection): 0.079 ± 0.056 %IA/g | Liver uptake (4 h post-injection): 0.056 ± 0.012 %IA/g | Lungs uptake (4 h post-injection): 0.123 ± 0.052 %IA/g | Muscle uptake (4 h post-injection): 0.020 ± 0.004 %IA/g | Pancreas uptake (4 h post-injection): 0.031 ± 0.012 %IA/g | Salivary glands uptake (4 h post-injection): 0.14±0.04 %IA/g | Spleen uptake (4 h post-injection): 0.222 ± 0.117 %IA/g | Stomach uptake (4 h post-injection): 0.029 ± 0.017 %IA/g | Testes uptake (4 h post-injection): 0.055 ± 0.018 %IA/g | Thyroid uptake (4 h post-injection): 0.065 ± 0.027 %IA/g | Tumor uptake (4 h post-injection): 14.24 ± 1.804 %IA/g | Tumor:Blood uptake ratio (4 h post-injection): 593 ± 338 | Tumor:Kidney uptake ratio (4 h post-injection): 1.58 ± 0.98 | Tumor:Muscle uptake ratio (4 h post-injection): 748 ± 180 | Tumor:Salivary gland uptake ratio (4 h post-injection): 105 ± 28.0 | Kidneys uptake [2]: 13.06 ± 9.598 %IA/g | Salivary glands uptake [2]: 0.142 ± 0.039 %IA/g | Adrenal glands uptake (24 h post-injection): 0.032 ± 0.010 %IA/g | Blood uptake (24 h post-injection): 0.004 ± 0.001 %IA/g | Blood:Salivary gland uptake ratio (24 h post-injection): 0.10 ± 0.02 | Bone uptake (24 h post-injection): 0.009 ± 0.005 %IA/g | Brain uptake (24 h post-injection): 0.010 ± 0.002 %IA/g | Fat uptake (24 h post-injection): 0.009 ± 0.008 %IA/g | Heart uptake (24 h post-injection): 0.009 ± 0.003 %IA/g | Intestines uptake (24 h post-injection): 0.059 ± 0.039 %IA/g | Kidneys uptake (24 h post-injection): 0.658 ± 0.159 %IA/g | Lacrimal glands uptake (24 h post-injection): 0.050 ± 0.024 %IA/g | Liver uptake (24 h post-injection): 0.043 ± 0.027 %IA/g | Lungs uptake (24 h post-injection): 0.028 ± 0.005 %IA/g | Muscle uptake (24 h post-injection): 0.005 ± 0.001 %IA/g | Pancreas uptake (24 h post-injection): 0.008 ± 0.002 %IA/g | Salivary glands uptake (24 h post-injection): 0.018 ± 0.003 %IA/g | Spleen uptake (24 h post-injection): 0.039 ± 0.007 %IA/g | Stomach uptake (24 h post-injection): 0.044 ± 0.011 %IA/g | Testes uptake (24 h post-injection): 0.018 ± 0.003 %IA/g
